In patent publication US12102615B2 (THE TEXAS A&M UNIVERSITY SYSTEM, priority 2018, dated 2024):
In brackets after ≈: the same amount, converted by molar mass. Several values for one entry are separate records, joined by “and”; a condition that tells them apart may be missing. Equal entries are not always repeated. Where two headings read alike, the source gives them in different places.

How the values were obtained:
Candida tropicalis 28272 = assay: MIC susceptibility testing (CLSI M27-A3); type: cell-based; conditions: Candida tropicalis, 28272, 24 h, read-out: Fluconazole MIC
Procedure: (§1) Minimum inhibitory concentration (MIC) susceptibility testing was performed according to the CLSI M27-A3 and M38-A2 standards for the susceptibility testing of yeasts and filamentous fungi, respectively. Incubation temperature was at 35° C. and the inoculum size was 0.5-2.5×10^3 colony-forming units (CFU)/mL and 0.4-5×10^4 conidia/mL for yeasts and filamentous fungi, respectively. Inoculum concentration for dermatophytes was 1-3×10^3 conidia/mL. RPMI was used throughout as the growth medium and Cryptococcus strains were tested in YNB. […] Voriconazole MICs were recorded at 80% inhibition after 96 hours of incubation for dermatophytes. S. cerevisiae deletion mutants were obtained from the commercially available BY4741 deletion library (Thermo Scientific). Susceptibility testing was carried out on inoculum size of 0.5-1×10^4 cells/ml in YPD media at 30° C. and MICs recorded after 48 and 60 hours.

[1] = system: Candida parapsilosis 2006; assay: MIC susceptibility testing (CLSI M27-A3); type: cell-based; conditions: Lodderomyces parapsilosis, 2006, 24 h, read-out: Fluconazole MIC
Procedure: as §1

[2] = system: Candida parapsilosis 28174; assay: MIC susceptibility testing (CLSI M27-A3); type: cell-based; conditions: Lodderomyces parapsilosis, 28174, 24 h, read-out: Fluconazole MIC
Procedure: as §1

[3] = system: Candida parapsilosis 28364; assay: MIC susceptibility testing (CLSI M27-A3); type: cell-based; conditions: Lodderomyces parapsilosis, 28364, 24 h, read-out: Fluconazole MIC
Procedure: as §1

Candida albicans 23512 = assay: MIC susceptibility testing (CLSI M27-A3); type: cell-based; conditions: Candida albicans, 23512, 24 h, read-out: Fluconazole MIC
Procedure: as §1

Candida tropicalis 28478 = assay: MIC susceptibility testing (CLSI M27-A3); type: cell-based; conditions: Candida tropicalis, 28478, 24 h, read-out: Fluconazole MIC
Procedure: as §1

[4] = system: Cryptococcus neoformans 19526; assay: MIC susceptibility testing (CLSI M27-A3); type: cell-based; conditions: Cryptococcus neoformans, 19526, 72 h, read-out: Fluconazole MIC
Procedure: as §1

Candida glabrata 27243 = assay: MIC susceptibility testing (CLSI M27-A3); type: cell-based; conditions: Nakaseomyces glabratus, 27243, 24 h, read-out: Fluconazole MIC
Procedure: as §1

Candida glabrata 28271 = assay: MIC susceptibility testing (CLSI M27-A3); type: cell-based; conditions: Nakaseomyces glabratus, 28271, 24 h, read-out: Fluconazole MIC
Procedure: as §1

Candida glabrata 25742 = assay: MIC susceptibility testing (CLSI M27-A3); type: cell-based; conditions: Nakaseomyces glabratus, 25742, 24 h, read-out: Fluconazole MIC
Procedure: as §1

Candida krusei 28415 = assay: MIC susceptibility testing (CLSI M27-A3); type: cell-based; conditions: Pichia kudriavzevii, 28415, 24 h, read-out: Fluconazole MIC
Procedure: as §1

Candida tropicalis 9624 = assay: MIC susceptibility testing (CLSI M27-A3); type: cell-based; conditions: Candida tropicalis, 9624, 24 h, read-out: Fluconazole MIC
Procedure: as §1

Candida albicans 28200 = assay: MIC susceptibility testing (CLSI M27-A3); type: cell-based; conditions: Candida albicans, 28200, 24 h, read-out: Fluconazole MIC
Procedure: as §1

Candida krusei 28570 = assay: MIC susceptibility testing (CLSI M27-A3); type: cell-based; conditions: Pichia kudriavzevii, 28570, 24 h, read-out: Fluconazole MIC
Procedure: as §1

[5] = system: Cryptococcus neoformans 27708; assay: MIC susceptibility testing (CLSI M27-A3); type: cell-based; conditions: Cryptococcus neoformans, 27708, 72 h, read-out: Fluconazole MIC
Procedure: as §1

Candida albicans 28102 = assay: MIC susceptibility testing (CLSI M27-A3); type: cell-based; conditions: Candida albicans, 28102, 24 h, read-out: Fluconazole MIC
Procedure: as §1

Candida krusei 9541 = assay: MIC susceptibility testing (CLSI M27-A3); type: cell-based; conditions: Pichia kudriavzevii, 9541, 24 h, read-out: Fluconazole MIC
Procedure: as §1

[6] = system: Cryptococcus neoformans 28446; assay: MIC susceptibility testing (CLSI M27-A3); type: cell-based; conditions: Cryptococcus neoformans, 28446, 72 h, read-out: Fluconazole MIC
Procedure: as §1

[7] = system: Trichophyton mentagrophytes 28556; assay: MIC susceptibility testing (CLSI M38-A2); type: cell-based
Procedure: as §1

[8] = system: Trichophyton mentagrophytes 10207; assay: MIC susceptibility testing (CLSI M38-A2); type: cell-based
Procedure: as §1

[9] = system: Trichophyton mentagrophytes 28641; assay: MIC susceptibility testing (CLSI M38-A2); type: cell-based
Procedure: as §1

[10] = system: Trichophyton rubrum 28658; assay: MIC susceptibility testing (CLSI M38-A2); type: cell-based
Procedure: as §1

[11] = system: Trichophyton rubrum 28659; assay: MIC susceptibility testing (CLSI M38-A2); type: cell-based
Procedure: as §1

[12] = system: Trichophyton rubrum 11199; assay: MIC susceptibility testing (CLSI M38-A2); type: cell-based
Procedure: as §1

[13] = system: Fluconazole resistant C. albicans and C. glabrata; assay: MIC against fluconazole resistant isolates; type: cell-based
Procedure: as §1

Aspergillus flavus 28517 = assay: MIC susceptibility testing (CLSI M38-A2); type: cell-based; conditions: Aspergillus flavus, 28517, 48 h, read-out: Voriconazole MIC
Procedure: as §1

Aspergillus flavus 28445 = assay: MIC susceptibility testing (CLSI M38-A2); type: cell-based; conditions: Aspergillus flavus, 28445, 48 h, read-out: Voriconazole MIC
Procedure: as §1

[14] = system: Rhizopus microsporus 28506; assay: MIC susceptibility testing (CLSI M38-A2); type: cell-based; conditions: Rhizopus microsporus, 28506, 24 h, read-out: Voriconazole MIC
Procedure: as §1

[15] = system: Aspergillus fumigatus 28436; assay: MIC susceptibility testing (CLSI M38-A2); type: cell-based; conditions: Aspergillus fumigatus, 28436, 48 h, read-out: Voriconazole MIC
Procedure: as §1

Mucor fragdis 27782 = assay: MIC susceptibility testing (CLSI M38-A2); type: cell-based; conditions: Mucor, 27782, 24 h, read-out: Voriconazole MIC
Procedure: as §1

[16] = system: Mucor circinelloides 19445; assay: MIC susceptibility testing (CLSI M38-A2); type: cell-based; conditions: Mucor circinelloides, 19445, 24 h, read-out: Voriconazole MIC
Procedure: as §1

Fusarium solani 18749 = assay: MIC susceptibility testing (CLSI M38-A2); type: cell-based; conditions: Fusarium solani, 18749, 48 h, read-out: Voriconazole MIC
Procedure: as §1

[17] = system: Aspergillus fumigatus 28435; assay: MIC susceptibility testing (CLSI M38-A2); type: cell-based; conditions: Aspergillus fumigatus, 28435, 48 h, read-out: Voriconazole MIC
Procedure: as §1

Mucor racemosus 27784 = assay: MIC susceptibility testing (CLSI M38-A2); type: cell-based; conditions: Mucor racemosus, 27784, 24 h, read-out: Voriconazole MIC
Procedure: as §1

[18] = system: Aspergillus fumigatus 28434; assay: MIC susceptibility testing (CLSI M38-A2); type: cell-based; conditions: Aspergillus fumigatus, 28434, 48 h, read-out: Voriconazole MIC
Procedure: as §1

Fusarium oxysporum 27718 = assay: MIC susceptibility testing (CLSI M38-A2); type: cell-based; conditions: Fusarium oxysporum, 27718, 48 h, read-out: Voriconazole MIC
Procedure: as §1

Aspergillus flavus 28455 = assay: MIC susceptibility testing (CLSI M38-A2); type: cell-based; conditions: Aspergillus flavus, 28455, 48 h, read-out: Voriconazole MIC
Procedure: as §1

[19] = system: Rhizopus microsporus 27785; assay: MIC susceptibility testing (CLSI M38-A2); type: cell-based; conditions: Rhizopus microsporus, 27785, 24 h, read-out: Voriconazole MIC
Procedure: as §1

Fusarium solani 28386 = assay: MIC susceptibility testing (CLSI M38-A2); type: cell-based; conditions: Fusarium solani, 28386, 48 h, read-out: Voriconazole MIC
Procedure: as §1

Rhizopus oryzae 28403 = assay: MIC susceptibility testing (CLSI M38-A2); type: cell-based; conditions: Rhizopus arrhizus, 28403, 24 h, read-out: Voriconazole MIC
Procedure: as §1

F-actin [20] = target: T1, F-actin (Oryctolagus cuniculus, UniProt P68135); parameters: Purified rabbit skeletal muscle filamentous actin (AKF99); purchased Cytoskeleton Inc. (Denver, CO) AKF99; host or cells: rabbit skeletal muscle; conditions: co-sedimentation assay, published previously (Ravichandran et al.), read-out: Kd, binding to actin; cited from earlier work
F-actin [21] = target: T1, F-actin; assay: Pyrene labeled actin depolymerization assay; type: biochemical; parameters: purchased Cytoskeleton, Inc. (Denver, CO) BK003; conditions: 5 μM
Procedure: (§2) Actin polymerization and depolymerization assays were performed using the Actin polymerization biochem kit (#BK003; Cytoskeleton, Inc. Denver, CO) following the manufacturer's instructions with some modifications. Briefly, for the polymerization assay, G-actin stock solution was made at 0.2 mg/mL instead of 0.4 mg/mL. For the depolymerization assay, F-actin stock solution was diluted 9-fold instead of 5-fold. […] The experiments were done in duplicate.

actin = target: T2, actin (Oryctolagus cuniculus, UniProt P68135); assay: Pyrene labeled actin polymerization assay; type: biochemical; conditions: 5 μM; approximately one hour after incubation in the polymerization buffer
T2 construct: purchased Cytoskeleton, Inc. (Denver, CO) BK003
Procedure: as §2

For `OC(Cn1cncn1)(Cn1cncn1)c1ccc(F)cc1F` [Fluconazole], the MIC (Candida tropicalis 28272) was 0.125 µg/mL (≈ 0.408 µM), the MIC [1] was 0.125 µg/mL (≈ 0.408 µM) and the MIC [2] was 0.25 µg/mL (≈ 0.816 µM). It also gave an MIC [3] of 0.25 µg/mL (≈ 0.816 µM), an MIC (Candida albicans 23512) of 32 µg/mL (≈ 104 µM) and an MIC (Candida tropicalis 28478) of 0.125 µg/mL (≈ 0.408 µM). It also gave an MIC [4] of 4 µg/mL (≈ 13.1 µM), an MIC (Candida glabrata 27243) of 64 µg/mL (≈ 209 µM) and an MIC (Candida glabrata 28271) of over 64 µg/mL. It also gave an MIC (Candida glabrata 25742) of 4 µg/mL (≈ 13.1 µM), an MIC (Candida krusei 28415) of 64 µg/mL (≈ 209 µM) and an MIC (Candida tropicalis 9624) of 0.25 µg/mL (≈ 0.816 µM). For the same compound, the MIC (Candida albicans 28200) was 8 µg/mL (≈ 26.1 µM), the MIC (Candida krusei 28570) was 16 µg/mL (≈ 52.2 µM) and the MIC [5] was 2 µg/mL (≈ 6.53 µM). It also gave an MIC (Candida albicans 28102) of 0.125 µg/mL (≈ 0.408 µM), an MIC (Candida krusei 9541) of 16 µg/mL (≈ 52.2 µM) and an MIC [6] of 4 µg/mL (≈ 13.1 µM). For the same compound, the MIC ([7]; Trichophyton mentagrophytes, 28556, read-out: Fluconazole MIC) was over 16 µg/mL, the MIC ([8]; Trichophyton mentagrophytes, 10207, read-out: Fluconazole MIC) was over 16 µg/mL and the MIC ([9]; Trichophyton mentagrophytes, 28641, read-out: Fluconazole MIC) was 16 µg/mL (≈ 52.2 µM). The MIC ([10]; Trichophyton rubrum, 28658, read-out: Fluconazole MIC) was 2 µg/mL (≈ 6.53 µM), the MIC ([11]; Trichophyton rubrum, 28659, read-out: Fluconazole MIC) was 2 µg/mL (≈ 6.53 µM) and the MIC ([12]; Trichophyton rubrum, 11199, read-out: Fluconazole MIC) was 0.25 µg/mL (≈ 0.816 µM). For the same compound, the “MIC / inhibitory concentrations” value [13] was at least 32 µg/mL.

`C[C@@H](c1ncncc1F)[C@](O)(Cn1cncn1)c1ccc(F)cc1F` [Voriconazole] gave an MIC (Aspergillus flavus 28517) of 1 µg/mL (≈ 2.86 µM), an MIC (Aspergillus flavus 28445) of 2 µg/mL (≈ 5.73 µM) and an MIC [14] of 16 µg/mL (≈ 45.8 µM). For the same compound, the MIC ([7]; Trichophyton mentagrophytes, 28556, 96 h, read-out: Voriconazole MIC) was 0.06 µg/mL (≈ 0.172 µM), the MIC [15] was 1 µg/mL (≈ 2.86 µM) and the MIC (Mucor fragdis 27782) was over 16 µg/mL. The MIC ([8]; Trichophyton mentagrophytes, 10207, 96 h, read-out: Voriconazole MIC) was 0.25 µg/mL (≈ 0.716 µM), the MIC ([9]; Trichophyton mentagrophytes, 28641, 96 h, read-out: Voriconazole MIC) was 0.06 µg/mL (≈ 0.172 µM) and the MIC [16] was over 16 µg/mL. The MIC (Fusarium solani 18749) was over 16 µg/mL, the MIC ([10]; Trichophyton rubrum, 28658, 96 h, read-out: Voriconazole MIC) was 0.03 µg/mL (≈ 0.0859 µM) and the MIC ([11]; Trichophyton rubrum, 28659, 96 h, read-out: Voriconazole MIC) was 0.03 µg/mL (≈ 0.0859 µM). For the same compound, the MIC ([12]; Trichophyton rubrum, 11199, 96 h, read-out: Voriconazole MIC) was 0.008 µg/mL (≈ 0.0229 µM), the MIC [17] was 1 µg/mL (≈ 2.86 µM) and the MIC (Mucor racemosus 27784) was over 16 µg/mL. It also gave an MIC [18] of 1 µg/mL (≈ 2.86 µM), an MIC (Fusarium oxysporum 27718) of over 16 µg/mL and an MIC (Aspergillus flavus 28455) of 2 µg/mL (≈ 5.73 µM). The MIC [19] was over 16 µg/mL, the MIC (Fusarium solani 28386) was over 16 µg/mL and the MIC (Rhizopus oryzae 28403) was over 16 µg/mL.

For phalloidin, the Kd (F-actin [20]) is listed as ~8 nM and 8 nM, the “effect on polymerization or depolymerization of actin” value (F-actin [21]) is listed as “completely blocked the depolymerization of F-actin” and the “pyrene fluorescent reading following incubation in depolymerization buffer” value (F-actin [21]; no drug control at 2,500 AU) is listed as “above 5,000 AU”. For the same compound, the “pyrene fluorescence reading, plateau in polymerization buffer” value (actin) was “around 19,000 AU”.
